Measurements: PubChem BioAssay AID192 (DTP/NCI, 2004)
Inconclusive results and toxic doses are left out.

Tested on: BDF1 mice, B16 melanoma ip, median survival T/C
Experiment: NCI In Vivo Anticancer Drug Screen. Data for tumor model B16 Melanoma (intraperitoneal) in B6D2F1 (BDF1) mice
Details: endpoint: median survival time, higher = longer survival
Summary of the method: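 Each result divides a survival or tumor-size measurement in the compound-treated group by the same measurement in the vehicle group.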

[1] = dose: 100.0 mg/kg/injection, schedule: Q01DX009 (ip), vehicle: saline
[2] = dose: 100.0 mg/kg/injection, schedule: Q04DX003 (ip), vehicle: saline with Tween-80
[3] = dose: 200.0 mg/kg/injection, schedule: Q01DX009 (ip), vehicle: saline
[4] = dose: 200.0 mg/kg/injection, schedule: Q04DX003 (ip), vehicle: saline with Tween-80
[5] = dose: 400.0 mg/kg/injection, schedule: Q01DX009 (ip), vehicle: saline
[6] = dose: 400.0 mg/kg/injection, schedule: Q04DX003 (ip), vehicle: saline with Tween-80
[7] = dose: 25.0 mg/kg/injection, schedule: Q01DX009 (ip), vehicle: saline with Tween-80
[8] = dose: 50.0 mg/kg/injection, schedule: Q01DX009 (ip), vehicle: saline with Tween-80
[9] = dose: 100.0 mg/kg/injection, schedule: Q01DX009 (ip), vehicle: saline with Tween-80
[10] = dose: 6.25 mg/kg/injection, schedule: Q01DX009 (ip), vehicle: Klucel (hydroxypropylcellulose) (HPC)
[11] = dose: 12.5 mg/kg/injection, schedule: Q01DX009 (ip), vehicle: Klucel (hydroxypropylcellulose) (HPC)
[12] = dose: 25.0 mg/kg/injection, schedule: Q01DX009 (ip), vehicle: Klucel (hydroxypropylcellulose) (HPC)
[13] = dose: 50.0 mg/kg/injection, schedule: Q01DX009 (ip), vehicle: Klucel (hydroxypropylcellulose) (HPC)
[14] = dose: 100.0 mg/kg/injection, schedule: Q01DX009 (ip), vehicle: Klucel (hydroxypropylcellulose) (HPC)
[15] = dose: 25.0 mg/kg/injection, schedule: Q01DX009 (ip), vehicle: saline
[16] = dose: 50.0 mg/kg/injection, schedule: Q01DX009 (ip), vehicle: saline
[17] = dose: 12.5 mg/kg/injection, schedule: Q01DX009 (ip), vehicle: saline with Tween-80
[18] = dose: 200.0 mg/kg/injection, schedule: Q01DX009 (ip), vehicle: Klucel (hydroxypropylcellulose) (HPC)
[19] = dose: 400.0 mg/kg/injection, schedule: Q01DX009 (ip), vehicle: Klucel (hydroxypropylcellulose) (HPC)

O=C1N[C@@H]([C@H]2CC[C@H](Cl)CN2)C(=O)N[C@H]1[C@H]1CC[C@H](Cl)CN1
T/C (dose: 0.05 mg/kg/injection, schedule: Q01DX009 (ip), vehicle: saline): 107 % of control
T/C (dose: 0.1 mg/kg/injection, schedule: Q01DX009 (ip), vehicle: saline): 116 % of control
T/C (dose: 0.5 mg/kg/injection, schedule: Q04DX003 (ip), vehicle: saline): 103 % of control
T/C (dose: 1.0 mg/kg/injection, schedule: Q01DX001 (ip), vehicle: saline): 115 % of control
T/C (dose: 1.0 mg/kg/injection, schedule: Q04DX003 (ip), vehicle: saline): 119 % of control
T/C (dose: 1.25 mg/kg/injection, schedule: Q01DX001 (ip), vehicle: saline): 119 % of control
T/C (dose: 2.0 mg/kg/injection, schedule: Q01DX001 (ip), vehicle: saline): 120 % of control
T/C (dose: 2.0 mg/kg/injection, schedule: Q04DX003 (ip), vehicle: saline): 124 % of control
T/C (dose: 2.5 mg/kg/injection, schedule: Q01DX001 (ip), vehicle: saline): 114 % of control
T/C (dose: 10.0 mg/kg/injection, schedule: Q01DX009 (ip), vehicle: alkali diluted with saline): 30 % of control
T/C (dose: 16.0 mg/kg/injection, schedule: Q01DX001 (ip), vehicle: saline): 154 % of control
T/C (dose: 20.0 mg/kg/injection, schedule: Q01DX009 (ip), vehicle: alkali diluted with saline): 30 % of control
T/C (dose: 40.0 mg/kg/injection, schedule: Q01DX009 (ip), vehicle: alkali diluted with saline): 27 % of control
T/C (dose: 80.0 mg/kg/injection, schedule: Q01DX009 (ip), vehicle: alkali diluted with saline): 16 % of control

COc1ccc2c(c1)C(=O)CC=C(C(=O)O)N2
T/C [1]: 100 % of control
T/C [2]: 88 % of control
T/C [3]: 96 % of control
T/C [4]: 93 % of control
T/C [5]: 98 % of control
T/C [6]: 95 % of control

Cc1c2ccncc2cc2c1[nH]c1ccccc12
T/C [7]: 119 % of control
T/C [8]: 121 % of control
T/C [9]: 122 % of control

C[N+](C)(C)c1cc2c(nn1)Nc1ccccc1S2
T/C (dose: 3.12 mg/kg/injection, schedule: Q01DX009 (ip), vehicle: Klucel (hydroxypropylcellulose) (HPC)): 101 % of control
T/C [10]: 98 % of control
T/C [11]: 101 % of control
T/C [12]: 101 % of control
T/C [13]: 102 % of control
T/C [14]: 89 % of control

CC(=N\[O-])/C(C)=N/O.CC(=N\[O-])/C(C)=N/O.CC(=O)[O-].CC(=O)[O-].O.[Rh+2].[Rh+2]
T/C (dose: 1.56 mg/kg/injection, schedule: Q01DX009 (ip), vehicle: saline): 115 % of control
T/C [15]: 115 % of control

COCC(O)Cn1ccnc1[N+](=O)[O-] (stereo not given)
T/C (dose: 12.5 mg/kg/injection, schedule: Q01DX009 (ip), vehicle: saline): 111 % of control
T/C (dose: 12.5 mg/kg/injection, schedule: Q01DX009 (ip), vehicle: suspension in saline): 124 % of control
T/C (dose: 12.5 mg/kg/injection, schedule: Q01DX009 (ip), vehicle: water): 95 % of control
T/C [15]: 105 % of control
T/C (dose: 25.0 mg/kg/injection, schedule: Q01DX009 (ip), vehicle: suspension in saline): 124 % of control
T/C (dose: 25.0 mg/kg/injection, schedule: Q01DX009 (ip), vehicle: water): 100 % of control
T/C [16]: 107 % of control
T/C (dose: 50.0 mg/kg/injection, schedule: Q01DX009 (ip), vehicle: suspension in saline): 103 % of control
T/C (dose: 50.0 mg/kg/injection, schedule: Q01DX009 (ip), vehicle: water): 111 % of control
T/C [1]: 101 % of control
T/C (dose: 100.0 mg/kg/injection, schedule: Q01DX009 (ip), vehicle: suspension in saline): 110 % of control
T/C (dose: 100.0 mg/kg/injection, schedule: Q01DX009 (ip), vehicle: water): 100 % of control
T/C [3]: 107 % of control
T/C (dose: 200.0 mg/kg/injection, schedule: Q01DX009 (ip), vehicle: suspension in saline): 124 % of control
T/C (dose: 200.0 mg/kg/injection, schedule: Q01DX009 (ip), vehicle: water): 103 % of control
T/C [5]: 104 % of control
T/C (dose: 400.0 mg/kg/injection, schedule: Q01DX009 (ip), vehicle: water): 100 % of control

CC(C)=CC1C(C(=O)OCc2ccc(C)cc2C)C1(C)C (stereo not given)
T/C (dose: 6.25 mg/kg/injection, schedule: Q01DX009 (ip), vehicle: saline with Tween-80): 99 % of control
T/C [17]: 104 % of control
T/C [7]: 110 % of control
T/C [8]: 103 % of control

O=C1NC(c2cccc(OCc3ccccc3)c2)Nc2ccccc21 (stereo not given)
T/C [12]: 92 % of control
T/C [13]: 100 % of control
T/C [14]: 103 % of control
T/C [18]: 108 % of control

COc1ccc(C(=O)c2ccc(C)cc2)cc1
T/C [14]: 97 % of control
T/C (dose: 100.0 mg/kg/injection, schedule: Q04DX003 (ip), vehicle: Klucel (hydroxypropylcellulose) (HPC)): 88 % of control
T/C [18]: 93 % of control
T/C (dose: 200.0 mg/kg/injection, schedule: Q04DX003 (ip), vehicle: Klucel (hydroxypropylcellulose) (HPC)): 95 % of control
T/C [19]: 93 % of control
T/C (dose: 400.0 mg/kg/injection, schedule: Q04DX003 (ip), vehicle: Klucel (hydroxypropylcellulose) (HPC)): 102 % of control

O=C1CN=C(c2ccccc2)c2cc(Cl)ccc2N1
T/C [10]: 102 % of control
T/C [11]: 90 % of control
T/C [12]: 90 % of control

C=C(C)C12CC(COC(=O)c3ccccc3)C34OC5(OC1C3C1OC1(CO)C(O)C1(O)C(OC(=O)c3ccccc3)C(C)C(C(C)CCCCCCC5O)C14)O2 (stereo not given)
T/C (dose: 3.8 micrograms/kg/injection, schedule: Q01DX009 (ip), vehicle: saline with Tween-80): 93 % of control
T/C (dose: 7.5 micrograms/kg/injection, schedule: Q01DX009 (ip), vehicle: saline with Tween-80): 97 % of control

CCC(=O)/C=C/C1=C(C)CCCC1(C)C
T/C [8]: 104 % of control
T/C [9]: 103 % of control
T/C (dose: 200.0 mg/kg/injection, schedule: Q01DX009 (ip), vehicle: saline with Tween-80): 92 % of control

COc1ccc(COC(=O)CN2C(=O)c3ccccc3C2=O)cc1
T/C [14]: 105 % of control
T/C [18]: 107 % of control
T/C [19]: 100 % of control

Cc1cc(C)c(OCC2CO2)c(C)c1 (stereo not given)
T/C [14]: 103 % of control
T/C [18]: 96 % of control
T/C [19]: 90 % of control

O=C(COc1ccccc1)CC(O)(C(F)(F)F)C(F)(F)F
T/C [2]: 100 % of control
T/C [4]: 92 % of control
T/C [6]: 97 % of control

COc1cccc2c1C(=O)c1c(O)c3c(c(O)c1C2=O)C[C@@](O)(C(C)O)C[C@@H]3OC1CC(N2CCOCC2C#N)C(O)C(C)O1 (stereo not given in full)
T/C (dose: 4.69 micrograms/kg/injection, schedule: Q01DX001 (ip), vehicle: water): 110 % of control
T/C (dose: 9.37 micrograms/kg/injection, schedule: Q01DX001 (ip), vehicle: water): 115 % of control
T/C (dose: 37.5 micrograms/kg/injection, schedule: Q01DX001 (ip), vehicle: water): 124 % of control

CCCCN(CCCC)CCNc1ccc(Cl)c2oc3cc(C)ccc3c(=O)c12
T/C [17]: 100 % of control
T/C [7]: 93 % of control
T/C (dose: 25.0 mg/kg/injection, schedule: Q04DX003 (ip), vehicle: saline with Tween-80): 105 % of control
T/C (dose: 50.0 mg/kg/injection, schedule: Q04DX003 (ip), vehicle: saline with Tween-80): 92 % of control
T/C [2]: 86 % of control

CCN(CC)CCN(C)C
T/C [16]: 118 % of control
T/C [1]: 112 % of control
T/C [3]: 103 % of control

COc1ccc2[nH]c3ccc4cc[n+](CCN5CCC(C6CCN(CC[n+]7ccc8ccc9[nH]c%10ccc(OC)cc%10c9c8c7)CC6)CC5)cc4c3c2c1
T/C [11]: 150 % of control
T/C [12]: 194 % of control
T/C [13]: 180 % of control
T/C [14]: 100 % of control

Cc1cc2oc(C)[n+](Cc3ccccc3)c2cc1C
T/C [8]: 111 % of control
T/C [9]: 98 % of control

O=CC=O
T/C [17]: 104 % of control
T/C [7]: 106 % of control
T/C [8]: 108 % of control
T/C [9]: 123 % of control

CCCC(=O)c1ccc(OC)c(OC)c1
T/C [13]: 86 % of control
T/C [14]: 93 % of control
T/C [18]: 96 % of control

CC(C)N(CCCO)C(C)C
T/C [8]: 101 % of control
T/C [9]: 97 % of control
